Assay results taken from patent US9340590B2 (priority 2011, dated 2016).
Positions of bridges follow the written chain, without caps; N, C: chain ends. Non-standard residues stand in square brackets, D forms with d. Residues, ends and D or L forms follow the SMILES beside them. Lys(Me2) = CN(C)CCCC[C@H](N)C(=O)O

How the values were obtained:
hNav1.7 = hNav1.7 (Homo sapiens, UniProt Q15858); assay: cell-based; settings: Nav1.7 Use IC50
hNav1.5 = hNav1.5 (Homo sapiens, UniProt Q14524); assay: cell-based
Chain of hNav1.5 (Q14524 whole entry, looked up): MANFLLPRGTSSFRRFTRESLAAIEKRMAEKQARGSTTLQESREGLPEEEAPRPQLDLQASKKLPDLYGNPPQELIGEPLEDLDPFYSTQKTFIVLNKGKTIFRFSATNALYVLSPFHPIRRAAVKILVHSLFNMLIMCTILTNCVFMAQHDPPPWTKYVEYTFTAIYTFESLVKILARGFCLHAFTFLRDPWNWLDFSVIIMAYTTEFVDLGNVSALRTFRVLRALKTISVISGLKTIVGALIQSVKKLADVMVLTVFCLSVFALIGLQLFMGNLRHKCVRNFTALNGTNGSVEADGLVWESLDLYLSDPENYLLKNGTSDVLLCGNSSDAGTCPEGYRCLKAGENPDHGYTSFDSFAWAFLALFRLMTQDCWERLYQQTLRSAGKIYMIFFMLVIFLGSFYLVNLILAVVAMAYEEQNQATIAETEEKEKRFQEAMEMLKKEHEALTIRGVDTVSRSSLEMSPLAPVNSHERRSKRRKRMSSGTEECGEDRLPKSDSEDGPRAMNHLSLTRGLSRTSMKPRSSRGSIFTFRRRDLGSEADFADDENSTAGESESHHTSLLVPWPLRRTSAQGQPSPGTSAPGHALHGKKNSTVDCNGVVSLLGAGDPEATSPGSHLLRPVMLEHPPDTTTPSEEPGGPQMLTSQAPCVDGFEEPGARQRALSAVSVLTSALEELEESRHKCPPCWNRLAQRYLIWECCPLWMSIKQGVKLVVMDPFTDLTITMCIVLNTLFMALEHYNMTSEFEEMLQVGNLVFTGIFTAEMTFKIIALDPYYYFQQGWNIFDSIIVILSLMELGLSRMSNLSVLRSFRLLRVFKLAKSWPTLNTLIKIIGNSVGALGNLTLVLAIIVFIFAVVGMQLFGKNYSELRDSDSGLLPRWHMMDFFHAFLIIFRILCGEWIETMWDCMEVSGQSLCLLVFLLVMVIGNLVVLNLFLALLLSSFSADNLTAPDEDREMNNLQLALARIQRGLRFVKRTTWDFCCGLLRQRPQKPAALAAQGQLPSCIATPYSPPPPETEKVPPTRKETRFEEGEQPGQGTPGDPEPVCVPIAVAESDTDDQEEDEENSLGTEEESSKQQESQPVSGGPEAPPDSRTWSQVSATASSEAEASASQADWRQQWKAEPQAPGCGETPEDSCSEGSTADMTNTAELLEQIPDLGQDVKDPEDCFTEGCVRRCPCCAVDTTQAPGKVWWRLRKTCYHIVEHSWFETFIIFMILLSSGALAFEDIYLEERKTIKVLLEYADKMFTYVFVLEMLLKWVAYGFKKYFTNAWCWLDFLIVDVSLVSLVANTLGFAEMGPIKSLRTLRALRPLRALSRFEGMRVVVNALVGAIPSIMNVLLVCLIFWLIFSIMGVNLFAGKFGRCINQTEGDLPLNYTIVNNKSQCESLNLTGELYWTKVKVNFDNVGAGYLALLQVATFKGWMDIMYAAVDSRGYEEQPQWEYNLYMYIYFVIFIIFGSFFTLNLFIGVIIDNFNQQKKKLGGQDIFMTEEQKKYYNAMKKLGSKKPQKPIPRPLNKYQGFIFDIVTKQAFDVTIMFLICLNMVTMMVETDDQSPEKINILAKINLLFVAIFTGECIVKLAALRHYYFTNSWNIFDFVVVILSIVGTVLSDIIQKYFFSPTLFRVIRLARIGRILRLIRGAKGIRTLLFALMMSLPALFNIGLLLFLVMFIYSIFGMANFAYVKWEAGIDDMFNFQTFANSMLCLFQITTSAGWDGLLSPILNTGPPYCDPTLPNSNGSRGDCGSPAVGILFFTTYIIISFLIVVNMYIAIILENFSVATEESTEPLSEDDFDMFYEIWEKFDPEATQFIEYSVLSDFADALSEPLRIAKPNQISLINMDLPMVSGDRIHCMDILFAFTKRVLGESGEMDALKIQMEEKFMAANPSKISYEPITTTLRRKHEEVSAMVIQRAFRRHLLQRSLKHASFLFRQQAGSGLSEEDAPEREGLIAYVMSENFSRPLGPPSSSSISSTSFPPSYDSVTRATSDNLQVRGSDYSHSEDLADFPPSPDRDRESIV

Chain of hNav1.7 (Q15858 whole entry, looked up): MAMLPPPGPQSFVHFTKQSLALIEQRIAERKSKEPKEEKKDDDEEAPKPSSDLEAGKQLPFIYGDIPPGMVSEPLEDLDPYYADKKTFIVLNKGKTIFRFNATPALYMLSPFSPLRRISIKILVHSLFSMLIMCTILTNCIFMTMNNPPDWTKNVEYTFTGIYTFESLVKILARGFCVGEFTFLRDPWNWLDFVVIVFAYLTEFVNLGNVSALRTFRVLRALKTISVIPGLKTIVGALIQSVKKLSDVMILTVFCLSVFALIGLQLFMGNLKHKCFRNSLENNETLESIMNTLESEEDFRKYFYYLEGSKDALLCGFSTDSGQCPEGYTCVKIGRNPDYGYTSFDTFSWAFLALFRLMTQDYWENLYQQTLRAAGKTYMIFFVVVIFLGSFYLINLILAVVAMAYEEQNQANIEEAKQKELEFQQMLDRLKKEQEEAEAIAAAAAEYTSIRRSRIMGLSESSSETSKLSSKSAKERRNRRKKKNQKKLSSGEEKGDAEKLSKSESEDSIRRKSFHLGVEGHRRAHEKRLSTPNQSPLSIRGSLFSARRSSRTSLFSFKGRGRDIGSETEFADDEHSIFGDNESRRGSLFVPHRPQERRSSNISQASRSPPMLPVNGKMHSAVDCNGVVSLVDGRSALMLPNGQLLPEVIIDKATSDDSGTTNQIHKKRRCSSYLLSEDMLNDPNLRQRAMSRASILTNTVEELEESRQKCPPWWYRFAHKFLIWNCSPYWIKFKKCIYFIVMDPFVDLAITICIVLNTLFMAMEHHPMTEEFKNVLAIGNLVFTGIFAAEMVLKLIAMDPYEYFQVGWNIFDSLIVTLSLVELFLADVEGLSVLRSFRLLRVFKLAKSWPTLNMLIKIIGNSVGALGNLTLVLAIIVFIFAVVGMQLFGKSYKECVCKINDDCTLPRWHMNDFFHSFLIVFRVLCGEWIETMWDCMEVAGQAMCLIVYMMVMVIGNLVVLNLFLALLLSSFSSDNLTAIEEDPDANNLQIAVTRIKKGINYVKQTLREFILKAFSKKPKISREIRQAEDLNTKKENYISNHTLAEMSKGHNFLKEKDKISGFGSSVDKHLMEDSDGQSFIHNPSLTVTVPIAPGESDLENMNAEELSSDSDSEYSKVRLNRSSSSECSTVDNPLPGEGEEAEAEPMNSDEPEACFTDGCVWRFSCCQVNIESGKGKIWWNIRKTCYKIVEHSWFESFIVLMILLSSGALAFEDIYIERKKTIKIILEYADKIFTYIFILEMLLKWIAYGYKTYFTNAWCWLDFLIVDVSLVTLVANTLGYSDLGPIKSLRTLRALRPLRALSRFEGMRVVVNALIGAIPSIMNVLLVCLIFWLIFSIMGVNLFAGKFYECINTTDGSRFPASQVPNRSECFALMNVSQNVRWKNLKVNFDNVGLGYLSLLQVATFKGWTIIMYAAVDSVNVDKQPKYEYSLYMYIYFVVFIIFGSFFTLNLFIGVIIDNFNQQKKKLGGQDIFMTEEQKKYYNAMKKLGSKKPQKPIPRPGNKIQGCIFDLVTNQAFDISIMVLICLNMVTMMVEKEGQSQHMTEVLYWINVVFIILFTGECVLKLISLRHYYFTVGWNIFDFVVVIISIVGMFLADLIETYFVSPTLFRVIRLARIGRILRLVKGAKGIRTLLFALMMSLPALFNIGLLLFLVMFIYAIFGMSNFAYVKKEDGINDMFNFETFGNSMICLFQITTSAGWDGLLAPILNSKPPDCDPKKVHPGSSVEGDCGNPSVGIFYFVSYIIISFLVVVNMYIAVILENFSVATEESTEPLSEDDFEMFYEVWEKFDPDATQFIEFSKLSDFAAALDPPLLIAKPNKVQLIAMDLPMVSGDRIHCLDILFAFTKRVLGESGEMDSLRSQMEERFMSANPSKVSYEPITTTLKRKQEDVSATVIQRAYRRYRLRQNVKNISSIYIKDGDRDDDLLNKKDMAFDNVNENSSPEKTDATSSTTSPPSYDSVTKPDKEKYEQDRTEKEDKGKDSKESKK

| SMILES | IC50 (hNav1.7) [µM] | IC50 (hNav1.5) [µM] |
| --- | --- | --- |
| CC[C@H](C)[C@@H]1NC(=O)[C@@H]2CSSC[C@@H]3NC(=O)[C@H](C(C)C)NC(=O)[C@H](CC(C)C)NC(=O)[C@H](CC(N)=O)NC(=O)[C@@H]4CCCN4C(=O)[C@H](CCCNC(=N)N)NC(=O)[C@H](CSSC[C@H](NC(=O)[C@@H](N)CC(=O)O)C(=O)N[C@@H](CC(C)C)C(=O)NCC(=O)N[C@@H](C(C)C)C(=O)N[C@@H](CCSC)C(=O)N[C@@H](CCCNC(=N)N)C(=O)N[C@@H](CCCCN)C(=O)N2)NC(=O)[C@H](CSSC[C@@H](C(=O)N[C@@H](CCCCN)C(=O)N[C@@H](Cc2ccc(O)cc2)C(=O)N[C@H](C(=O)N[C@@H](Cc2ccccc2)C(N)=O)C(C)C)NC(=O)[C@H](Cc2c[nH]c4ccccc24)NC(=O)[C@H](CCCCN)NC(=O)[C@H](Cc2c[nH]cn2)NC(=O)[C@H]([C@@H](C)O)NC(=O)[C@H](CCCNC(=N)N)NC(=O)[C@H](CO)NC3=O)NC(=O)[C@H](CCCCN)NC(=O)[C@H](CC(=O)O)NC(=O)[C@H](CC(N)=O)NC(=O)[C@H](CCC(=O)O)NC(=O)[C@@H]2CCCN2C1=O [[Val5;Glu12]GpTx-1(1-34)] (H-DCLGVMRKCIPENDKCCRPNLVCSRTHKWCKYVF-NH2; disulfide 2-17, 9-23, 16-30) | 0.074 | > 10 |
| CC[C@H](C)[C@@H]1NC(=O)[C@@H]2CSSC[C@@H]3NC(=O)[C@H](C(C)C)NC(=O)[C@H](CC(C)C)NC(=O)[C@H](CC(N)=O)NC(=O)[C@@H]4CCCN4C(=O)[C@H](CCCNC(=N)N)NC(=O)[C@H](CSSC[C@H](NC(=O)[C@@H](N)CC(=O)O)C(=O)N[C@@H](CC(C)C)C(=O)NCC(=O)N[C@@H](Cc4ccccc4)C(=O)N[C@@H](CCSC)C(=O)N[C@@H](CCCNC(=N)N)C(=O)N[C@@H](CCCCN)C(=O)N2)NC(=O)[C@H](CSSC[C@@H](C(=O)N[C@@H](CCCCN)C(=O)N[C@@H](Cc2ccc(O)cc2)C(=O)N[C@H](C(=O)N[C@@H](Cc2ccccc2)C(N)=O)C(C)C)NC(=O)[C@H](Cc2c[nH]c4ccccc24)NC(=O)[C@H](CCCCN)NC(=O)[C@H](Cc2c[nH]cn2)NC(=O)[C@H]([C@@H](C)O)NC(=O)[C@H](CCCCN(C)C)NC(=O)[C@H](CO)NC3=O)NC(=O)[C@H](CCCCN)NC(=O)[C@H](CC(=O)O)NC(=O)[C@H](CC(N)=O)NC(=O)[C@H](CC(=O)O)NC(=O)[C@@H]2CCCN2C1=O [[K(Me2)25]GpTx-1(1-34)] (H-DCLGFMRKCIPDNDKCCRPNLVCS[Lys(Me2)]THKWCKYVF-NH2; disulfide 2-17, 9-23, 16-30) | 0.008 | 13.3 |
| CC(C)C[C@@H]1NC(=O)[C@@H](NC(=O)[C@@H](N)CC(=O)O)CSSC[C@@H]2NC(=O)[C@@H]3CSSC[C@@H](C(=O)N[C@@H](CCCCN)C(=O)N[C@@H](Cc4ccc(O)cc4)C(=O)N[C@H](C(=O)N[C@@H](Cc4ccccc4)C(N)=O)C(C)C)NC(=O)[C@H](Cc4c[nH]c5ccccc45)NC(=O)[C@H](CCCCN)NC(=O)[C@H](Cc4c[nH]cn4)NC(=O)[C@H]([C@@H](C)O)NC(=O)[C@H](CCCNC(=N)N)NC(=O)[C@H](CO)NC(=O)[C@H](CSSC[C@H](NC(=O)[C@H](CCCCN)NC(=O)[C@H](CCCNC(=N)N)NC(=O)[C@H](Cc4ccccc4)NC(=O)[C@H](C)NC(=O)CNC1=O)C(=O)N[C@@H](CC(=O)O)C(=O)N1CCC[C@H]1C(=O)N[C@@H](CC(=O)O)C(=O)N[C@@H](CC(N)=O)C(=O)N[C@@H](CC(=O)O)C(=O)N[C@@H](CCCCN)C(=O)N3)NC(=O)[C@H](C(C)C)NC(=O)[C@H](CC(C)C)NC(=O)[C@H](CC(N)=O)NC(=O)[C@@H]1CCCN1C(=O)[C@H](CCCNC(=N)N)NC2=O [[Ala5;Phe6;Asp10]GpTx-1(1-34)] (H-DCLGAFRKCDPDNDKCCRPNLVCSRTHKWCKYVF-NH2; disulfide 2-17, 9-23, 16-30) | 0.04 | > 10 |
